Columns and labels:
[1] = Metabolic stability in liver microsomes, human; type: in vitro ADME; conditions: low value = metabolically stable
Experimental: (§1) Also the metabolic stability in liver microsomes was tested for some compounds.

[2] = Metabolic stability in liver microsomes, rat; type: in vitro ADME; conditions: low value = metabolically stable
Experimental: as §1

[3] = Non-specific binding assessment across tissue-free inserts; type: in vitro ADME; conditions: tissue-free insert, DPBS; for recovery at 120 min, 1 μM: tissue-free Millipore Millicell culture plate inserts; for Papp at 120 min, 1 μM: read-out: apparent permeability coefficient (Papp) through cell-free insert
Experimental: Non-specific binding assessment (NSB) was conducted in a tissue-free plate containing Millipore Millicell culture plate inserts that were the same ones that were used in the permeation study across the culture tissues. Each of the tested compounds was dosed at 1 μM with DPBS buffer. Sampling time for the receiver chambers was 120 minutes after dosing, while the donor sides were sampled at 0 and 120 minutes after dosing. The NSB assessments consisted of the permeation rates across tissue-free inserts and the percent recovery by calculating the mass balance of the test campounds at the end of the experiment. The recovery assessment was used to assess the non-specific binding property of the tested compounds to the assay apparatus.

[4] = system: bilateral 6-hydroxydopamine (6OHDA) lesion of the substantia nigra; assay: Bilateral 6OHDA lesion of the substantia nigra, behavioral assessment; type: in vivo, Male rats; conditions: for prepulse inhibition (sensorimotor gating): 6OHDA rats, once daily 7 days sc, 10 mg/kg (estradiol 100 μg/kg); for motor performance (spontaneous locomotor activity, rotorod, challenging beam) / novel object recognition (cognition): rat, in vivo; for novel object recognition (cognition): sc, 10 mg/kg
Experimental: (§2) Male rats received baseline assessment of weight, motor function (spontaneous locomotor behavior, rotorod performance) and sensorimotor gating (prepulse inhibition). Subjects were assigned to treatment conditions to equalize performance on all these measures. Subjects were then treated once daily for 7 days with either sesame oil vehicle, estradiol (100 μg/kg sc), Comparative substance 131 (10 mg/kg sc), Compound 8 (10 mg/kg sc), Comparative substance 623 (10 mg/kg sc) or Comparative substance 957 (10 mg/kg sc). On the second day of treatment, subjects received bilateral sham or 6OHDA lesions (8 μg in 4 μl) of the substantia nigra (A/P−5.0 mm, M/L±1.6 mm, D/V−8.2 mm) following the atlas of Paxinos and Watson (Paxinos, G., Watson, C., The Rat Brain in Stereotaxic Coordinates, Fourth Edition, New York: Academic Press, Spiral Bound, 1998). Behavioral assessments of motor function (spontaneous locomotion, rotorod and traversing a challenging beam), cognition (novel object recognition) and sensorimotor gating (prepulse inhibition) began after the final day of treatment. Following behavioral assessment, SN and striatal tissue were collected in order to determine the intactness of the nigrostriatal dopamine system.

[5] = system: nigrostriatal dopamine neurons; assay: Tyrosine hydroxylase immunofluorescence in SN and STR after 6OHDA lesion; type: in vivo, Male rats; conditions: 6OHDA rats, once daily 7 days sc; 10 mg/kg (estradiol 100 μg/kg)
Experimental: as §2
Comparative compound 131 and Compound 8 were compared with estradiol for their ability to protect nigrostriatal dopamine neurons as measured by tyrosine hydroxylase (TH) immunohistochemistry in the SN and striatum (STR).

ERβ [6] = target: T1, ERβ (Homo sapiens, UniProt Q92731); assay: R-SAT functional assay, ERβ; type: cell-based; parameters: expressed in transfected cells; host or cells: transient transfection; conditions: NIH3T3, read-out: R-SAT Erβ % Eff
T1 sequence (Q92731 whole entry, species assumed): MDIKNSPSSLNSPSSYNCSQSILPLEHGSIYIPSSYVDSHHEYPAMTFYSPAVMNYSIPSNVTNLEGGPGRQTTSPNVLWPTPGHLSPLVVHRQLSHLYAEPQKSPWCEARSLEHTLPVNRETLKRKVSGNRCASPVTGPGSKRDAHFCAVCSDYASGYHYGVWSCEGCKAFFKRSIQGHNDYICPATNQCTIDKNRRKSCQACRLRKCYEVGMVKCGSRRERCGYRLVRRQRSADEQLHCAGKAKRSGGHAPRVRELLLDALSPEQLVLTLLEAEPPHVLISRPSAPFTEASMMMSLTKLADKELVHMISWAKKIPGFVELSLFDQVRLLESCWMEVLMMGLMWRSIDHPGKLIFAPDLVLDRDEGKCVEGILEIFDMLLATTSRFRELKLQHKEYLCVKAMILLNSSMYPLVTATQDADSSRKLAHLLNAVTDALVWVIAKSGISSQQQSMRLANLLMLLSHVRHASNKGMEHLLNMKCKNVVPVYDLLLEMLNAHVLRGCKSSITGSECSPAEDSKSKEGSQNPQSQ
From the text: R-SAT® (Receptor Selection and Amplification Technology) is a cell-based functional assay that allows one to monitor receptor-dependent proliferative responses and has been described elsewhere. […] This process is achieved by partial cellular transformation via loss of contact inhibition and growth factor dependency. Monitoring is achieved by transfecting the cells with a β-galactosidase reporter gene vector whose expression is under a constitutively active promoter. Briefly, NIH-3T3 fibroblasts were plated overnight in 96-wells plates in DMEM 10% calf serum (Hyclone) and grown to 60-70% confluency prior to transfection. Transient transfections were performed using Polyfect (Qiagen) according to manufacturer's instructions. Typically a transfection mix would consist of the receptor and the β-galactosidase expression vectors. Sixteen hours post-transfection, cells were incubated with different doses of ligand in DMEM containing 30% Ultraculture (Hyclone) and 0.4% calf serum (Hyclone) to generate a dose response curve. […] Plates were read using a microplate reader at 420 nm. Data from R-SAT® assays were fit to the equation: r=A+B(x/(x+c)), where A=minimum response, B=maximum response minus minimum response, c=EC50, r=response, and x=concentration of ligand. Curves were generated using the curve fitting softwares Excel Fit and GraphPad Prism (San Diego, Calif.). Luciferase Reporter Gene Assay

ERα = target: T2, ERα (Homo sapiens, UniProt P03372); assay: Luciferase reporter gene assay (3*ERE) in HEK293 cells, ERα; type: cell-based; parameters: expressed in transfected cells; host or cells: transient transfection; conditions: 48 hours; for EC50: na = not active, read-out: Luciferase Erα pEC50 (converted)
T2 sequence (P03372 1-595): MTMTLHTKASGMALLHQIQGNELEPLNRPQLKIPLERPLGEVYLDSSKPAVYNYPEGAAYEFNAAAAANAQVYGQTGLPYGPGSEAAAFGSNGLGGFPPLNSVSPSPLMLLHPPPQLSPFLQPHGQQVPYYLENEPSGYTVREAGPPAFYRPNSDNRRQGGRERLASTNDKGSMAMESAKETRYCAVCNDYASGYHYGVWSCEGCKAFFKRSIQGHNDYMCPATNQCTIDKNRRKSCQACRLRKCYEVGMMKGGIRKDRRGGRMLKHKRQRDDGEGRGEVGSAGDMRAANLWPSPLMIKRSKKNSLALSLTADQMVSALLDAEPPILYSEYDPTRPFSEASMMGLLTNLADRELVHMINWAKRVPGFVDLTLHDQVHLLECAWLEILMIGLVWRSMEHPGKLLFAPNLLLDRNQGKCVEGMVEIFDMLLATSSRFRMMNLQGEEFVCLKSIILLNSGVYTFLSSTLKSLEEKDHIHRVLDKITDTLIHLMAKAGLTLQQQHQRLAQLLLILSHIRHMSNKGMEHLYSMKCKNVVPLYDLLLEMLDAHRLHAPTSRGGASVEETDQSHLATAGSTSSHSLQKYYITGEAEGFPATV
Experimental: (§3) HEK293 cells were grown to 70% confluency in DMEM containing 10% calf serum (Hyclone) prior to transfection. On the day of transfection (day 1), expression vectors for ERα or ERβ were cotransfected along a construct containing a synthetic 3*ERE upstream of the luciferase gene (Panomics), using Polyfect (Qiagen) per manufacturer's recommendations (ERE being estrogen response element). Sixteen hours post-transfection, cells were incubated in serum free DMEM. […] Cells extracts were then obtained by lyzing and the Luciferase activity measured, all of these steps performed using a commercially available kit (Promega).

ERβ [7] = target: T1, ERβ; assay: Luciferase reporter gene assay (3*ERE) in HEK293 cells, ERβ; type: cell-based; parameters: expressed in transfected cells; host or cells: HEK293 cells, transient transfection; conditions: for Emax: HEK293, 48 h, read-out: Luciferase Erβ % Eff
Experimental: as §3

SMILES	microsomal CLint [1] [µL/min/mg]	microsomal CLint [2] [µL/min/mg]	recovery at 120 min, 1 μM [3] [%]	Papp at 120 min, 1 μM [3] [×10⁻⁶ cm/s]	prepulse inhibition (sensorimotor gating) [4]	motor performance (spontaneous locomotor activity, rotorod, challenging beam) [4]	novel object recognition (cognition) [4]	percent immunopositive and mean pixel intensity of TH immunofluorescence in the STR [5]	percent immunopositive, mean cell size and mean pixel intensity of TH immunofluorescence in the SN [5]	tyrosine hydroxylase positive cell number in the SN [5]	Emax (ERβ [6]) [%]	Luciferase Erα % Eff (ERα) [%]	EC50 (ERα) [nM]	EC50 (ERβ [7]) [nM]	Emax (ERβ [7]) [%]
Oc1ccc(C2(c3ccccc3F)CCC(F)(F)CC2)cc1 [Compound 8, 4-(4,4-Difluoro-1-(2-fluorophenyl)cyclohexyl)phenol]	11	150	57	19.8	prevented the 6OHDA-induced deficit in PPI	prevented the impairment	showed improved memory	increase in percentage of the image that was immunopositive and increased mean pixel intensity	improved percent immunopositive, mean cell size and mean pixel intensity	prevented the reduction in cell number	69	32	631	0.631	96
Oc1ccc(C2(c3ccccc3Cl)CCCCC2)cc1F [Compound 957]	20	450	18	0.881	prevented the 6OHDA-induced deficit in PPI	prevented the impairment	did not reverse the cognitive deficit		improved percent immunopositive, mean cell size and mean pixel intensity	prevented the reduction in cell number	94	13		1.26	62
Oc1ccc(C2(c3cccc(F)c3Cl)CCCCC2)cc1 [Compound 623]			22	1.17	prevented the 6OHDA-induced deficit in PPI	prevented the impairment	showed improved memory		improved percent immunopositive, mean cell size and mean pixel intensity	prevented the reduction in cell number	89	15	398	5.01	99

— patent US9061981B2, “Diphenyl substituted cyclohexane derivatives, useful as modulators of the estrogen receptors beta” (Acadia Pharmaceuticals Inc., priority 2011, dated 2015)
